Laboratory results from ChEMBL document CHEMBL1148664, “Synthesis and biological evaluation of rhodanine derivatives as PRL-3 inhibitors” (Bioorg Med Chem Lett, 2006).
Calls of active or inactive are those of the source. The rule behind the calls is not given here.

Columns and labels:
[1] = target: T1, Protein tyrosine phosphatase type IVA 3 (Homo sapiens, UniProt O75365); assay: Inhibition of human recombinant PRL-3 up to 50 uM
B16-F10 = assay: Ability to reduce the invasiveness of tumor in B16F10 cells; type: functional, cell-based; conditions: Mus musculus
[2] = target: T1, Protein tyrosine phosphatase type IVA 3; assay: Inhibition of human recombinant PRL-3

T1 sequence (O75365 whole entry): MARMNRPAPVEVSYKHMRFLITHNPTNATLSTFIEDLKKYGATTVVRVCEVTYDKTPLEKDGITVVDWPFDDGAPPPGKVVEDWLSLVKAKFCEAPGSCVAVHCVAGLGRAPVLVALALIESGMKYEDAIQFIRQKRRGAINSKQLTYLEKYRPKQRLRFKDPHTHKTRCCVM

inhibition [1] | Structure (SMILES) | other results
inactive | CN1C(=O)/C(=C/c2cc(Br)ccc2OCc2ccccc2)SC1=S | 
 | O=C1NC(=S)S/C1=C\c1cc2ccccc2cc1OCc1c(F)cccc1Cl | Activity (B16-F10): Active
 | O=C1NC(=S)S/C1=C\c1cc(Br)ccc1OCc1ccccc1Br | Activity (B16-F10): Active
inactive | O=C1NC(=O)/C(=C/c2cc(Br)ccc2OCc2ccccc2)S1 | 
inactive | O=Cc1cc(Br)ccc1O | 
inactive | CS(=O)(=O)Oc1ccc(Br)cc1/C=C1\SC(=S)NC1=O | 
inactive | O=C1NC(=S)S/C1=C\c1cc(Br)ccc1OCc1cccnc1 | 
inactive | O=C1NC(=S)S/C1=C\c1ccccc1OCc1ccccc1 | 
 | O=C1NC(=S)S/C1=C\c1cc(Br)ccc1O | IC50 [2]: 9.5 µM
 | N=C(N)c1ccc(OCCCCCOc2ccc(C(=N)N)cc2)cc1 [PENTAMIDINE] | IC50 [2]: 53.6 µM
